Legend:
[1] = test system: E. coli S30 extract (bacterial protein synthesis); test: E. coli S30 extract coupled transcription-translation luciferase assay (inhibition of bacterial protein synthesis); type: biochemical; details: class by IC50 or % inhibition @ 1 μM, read-out: S30 IC50 (μM/% inhib.)
Summary of the method: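 Luciferase luminescence quantified inhibition of protein synthesis relative to water controls, with no-DNA reactions giving background. Compounds in 2-fold serial dilution (8 levels) were incubated 1 hour at 37 °C with E. coli S30 extract, amino acids and pBESTluc plasmid, then chilled to stop.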

[2] = target: Rabbit Reticulocyte Lysate (eukaryotic protein synthesis); test: Rabbit reticulocyte lysate luciferase assay (inhibition of eukaryotic protein synthesis); type: biochemical; details: class by IC50 or % inhibition @ 1 μM, read-out: Rabbit reticulocyte IC50 (μM/% inhib.)
Summary of the method: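 Percent inhibition calculated against water-only controls from luminescence; background set by lysate lacking RNA. Compounds, 8-point 2-fold titration, incubated 90 minutes at 30° C with nuclease-treated rabbit reticulocyte lysate programmed with luciferase control RNA plus complete amino acids.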

P. aeruginosa (Pa) = test: Broth microdilution minimum inhibitory concentration (MIC), CLSI; type: cell-based; details: growth medium supplemented with sodium bicarbonate; for MIC: Pseudomonas aeruginosa, read-out: Pa MIC + bicarb
Summary of the method: (§1)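 CLSI broth microdilution with modification: 8-point two-fold compound dilutions in CAMHB, CAMHB plus 6.25 or 25 mM sodium bicarbonate, or CAMHB plus 0–50% heat-inactivated human serum. Inoculum 5×10^4 CFU/well from log-phase cultures adjusted to 0.5 McFarland; triplicate wells.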

A. baumannn (Ab) = test: as above; type: cell-based; details: for MIC: Acinetobacter baumannii, read-out: Ab + bicarb MIC
Summary of the method: as §1

E. faecalis (Ef) = test: as above; type: cell-based; details: growth medium supplemented with sodium bicarbonate; for MIC: Enterococcus faecalis, read-out: Ef + bicarb MIC
Summary of the method: as §1

S. aureus (Sa) = test: as above; type: cell-based; details: growth medium supplemented with sodium bicarbonate; for MIC: Staphylococcus aureus, read-out: Sa + bicarb MIC
Summary of the method: as §1

E. coli (Ec) = test: as above; type: cell-based; details: growth medium supplemented with sodium bicarbonate; for MIC: Escherichia coli, read-out: E. coli + bicarb MIC
Summary of the method: as §1

Compound | IC50 [1] [µM] | IC50 [2] [µM] | MIC (P. aeruginosa (Pa)) [mg/L] | MIC (A. baumannn (Ab)) [mg/L] | MIC (E. faecalis (Ef)) [mg/L] | MIC (S. aureus (Sa)) [mg/L] | MIC (E. coli (Ec)) [mg/L] | Pa MIC + bicarb (P. aeruginosa (Pa)) | Ab + bicarb MIC (A. baumannn (Ab); A. baumannii, growth medium supplemented with sodium bicarbonate) | Ef + bicarb MIC (E. faecalis (Ef)) | Sa + bicarb MIC (S. aureus (Sa)) | E. coli + bicarb MIC (E. coli (Ec))
CC(C)(N)C(=O)N1CCN(C(=O)Nc2ccn(-c3ccc(CN4CCC5(CC4)CC(N)C5)cc3)c(=O)n2)CC1 [Compound 33] | < 0.5 | ≥ 1 | 8 to 32 | 8 to 32 | < 8 | < 8 | < 8 |  |  |  |  | 
CC(C)(N)C(=O)N1CCN(C(=O)Nc2ccn(-c3ccc(CN4CC5(CC(N)C5)C4)cc3)c(=O)n2)CC1 [Compound 34] | < 0.5 | ≥ 1 | > 32 | > 32 | 8 to 32 | < 8 | < 8 |  |  |  |  | 
C[C@@](N)(CO)C(=O)N1CCN(C(=O)Nc2ccn(-c3ccc(CN4C[C@@H]5[C@@H](N)[C@@H]5C4)cc3)c(=O)n2)CC1 [Compound 40] | < 0.5 | ≥ 1 | > 32 | > 32 | < 8 | < 8 | < 8 |  |  |  |  | 
NCC[C@H](N)C(=O)N1CCN(C(=O)Nc2ccn(-c3ccc(CN4C[C@@H]5[C@@H](N)[C@@H]5C4)cc3)c(=O)n2)CC1 [Compound 41] | ≥ 1 | ≥ 1 | > 32 | > 32 | > 32 | > 32 | > 32 |  |  |  |  | 
CC(C)(N)C(=O)N1CCN(C(=O)Nc2ccn(-c3ccc(CN4CC5CC(N)C5C4)cc3)c(=O)n2)CC1 (stereo not drawn) [Compound 42] | < 0.5 | ≥ 1 | > 32 | > 32 | 8 to 32 | 8 to 32 | < 8 |  |  |  |  | 
C[C@@H]1CN(C(=O)Nc2ccn(-c3ccc(CN4C[C@@H]5[C@@H](N)[C@@H]5C4)cc3)c(=O)n2)CCN1C(=O)[C@@](C)(N)CO [Compound 45] | < 0.5 | ≥ 1 | 8 to 32 | > 32 | < 8 | < 8 | < 8 |  |  |  |  | 
CC(C)(N)CC1CCN(C(=O)Nc2ccn(-c3ccc(CN4C[C@@H]5[C@@H](N)[C@@H]5C4)cc3)c(=O)n2)CC1 [Compound 48] | 0.5 to 1 | ≥ 1 | > 32 | > 32 | 8 to 32 | < 8 | < 8 |  |  |  |  | 
NC1CC2(CCN(C(=O)Nc3ccn(-c4ccc(CN5C[C@@H]6[C@@H](N)[C@@H]6C5)cc4)c(=O)n3)CC2)C1 [Compound 49] | < 0.5 | ≥ 1 | > 32 | > 32 | 8 to 32 | < 8 | < 8 |  |  |  |  | 
COC[C@@](C)(N)C(=O)N1CCN(C(=O)Nc2ccn(-c3ccc(CN4C[C@@H]5[C@@H](N)[C@@H]5C4)cc3)c(=O)n2)CC1 [Compound 53] | 0.5 to 1 | ≥ 1 | > 32 | > 32 | < 8 | < 8 | < 8 |  |  |  |  | 
CC(C)(N)C1CN(C(=O)Nc2ccn(-c3ccc(CN4C[C@@H]5[C@@H](N)[C@@H]5C4)cc3)c(=O)n2)CCO1 (stereo partly drawn) [Compound 56] | ≥ 1 | ≥ 1 | > 32 | > 32 | > 32 | > 32 | 8 to 32 |  |  |  |  | 
CC(C)(N)C(=O)N1CCN(C(=O)Nc2ccn(-c3ccc(CN4C5CCC4CC(N)C5)cc3)c(=O)n2)CC1 (stereo not drawn) [Compound 58] | < 0.5 | ≥ 1 | > 32 | > 32 | 8 to 32 | < 8 | < 8 |  |  |  |  | 
CC(C)(N)C(=O)N1CCN(C(=O)Nc2ccn(-c3ccc(CN4C5CCC4CC(N)C5)cc3)c(=O)n2)CC1 (stereo not drawn) [Compound 59] | < 0.5 | ≥ 1 |  |  |  |  |  | + (An MIC (μg/mL) value that is 32 μg/mL or greater) | + (An MIC (μg/mL) value that is 32 μg/mL or greater) | +++ (An MIC value (μg/mL) that is less than 8 μg/mL) | +++ (An MIC value (μg/mL) that is less than 8 μg/mL) | +++ (An MIC value (μg/mL) that is less than 8 μg/mL)
CC(C)(N)C(=O)N1CCN(C(=O)Nc2ccn(-c3ccc(CN4CC5(CCC5N)C4)cc3)c(=O)n2)CC1 (stereo not drawn) [Compound 60] | < 0.5 | ≥ 1 | > 32 | > 32 | > 32 | < 8 | < 8 |  |  |  |  | 
N[C@@H]1[C@H]2CN(Cc3ccc(-n4ccc(NC(=O)N5CCC6(CC5)CNC6)nc4=O)cc3)C[C@@H]12 [Compound 61] | ≥ 1 | ≥ 1 | > 32 | > 32 | > 32 | > 32 | 8 to 32 |  |  |  |  | 
N[C@@H]1[C@H]2CN(Cc3ccc(-n4ccc(NC(=O)N5CCC6(CCNCC6)CC5)nc4=O)cc3)C[C@@H]12 [Compound 62] | ≥ 1 | ≥ 1 | > 32 | > 32 | 8 to 32 | < 8 | < 8 |  |  |  |  | 
N[C@@H]1[C@H]2CN(Cc3ccc(-n4ccc(NC(=O)N5CCC6(CCNC6)C5)nc4=O)cc3)C[C@@H]12 (stereo partly drawn) [Compound 63] | ≥ 1 | ≥ 1 | > 32 | > 32 | > 32 | > 32 | > 32 |  |  |  |  | 
NC1CCC12CCN(C(=O)Nc1ccn(-c3ccc(CN4C[C@@H]5[C@@H](N)[C@@H]5C4)cc3)c(=O)n1)CC2 (stereo partly drawn) [Compound 64] | ≥ 1 | ≥ 1 | > 32 | > 32 | 8 to 32 | 8 to 32 | 8 to 32 |  |  |  |  | 
CC(C)(N)C(=O)N1CCN(C(=O)Nc2ccn(-c3ccc(CN4C[C@@H]5[C@@H](N)[C@@H]5C4)cc3)c(=O)n2)CC1 [Compound 65] | < 0.5 | ≥ 1 | > 32 | 8 to 32 | < 8 | < 8 | < 8 |  |  |  |  | 
CC(C)(N)C(=O)N1CCN(C(=O)Nc2ccn(-c3ccc(CN4C[C@@H]5[C@@H](N)[C@@H]5[C@H]4CO)cc3)c(=O)n2)CC1 [Compound 66] | 0.5 to 1 | ≥ 1 | > 32 | > 32 | > 32 | 8 to 32 | < 8 |  |  |  |  | 
CC(c1ccc(-n2ccc(NC(=O)N3CCN(C(=O)C(C)(C)N)CC3)nc2=O)cc1)N1C[C@@H]2[C@@H](N)[C@@H]2C1 (stereo partly drawn) [Compound 67] | < 0.5 | ≥ 1 | > 32 | > 32 | < 8 | < 8 | < 8 |  |  |  |  | 
CC(C)(N)C(=O)N1CCN(C(=O)Nc2ccn(-c3ccc(CN4C[C@@H]5[C@@H](CN)[C@@H]5C4)cc3)c(=O)n2)CC1 [Compound 68] | < 0.5 | ≥ 1 | > 32 | > 32 | > 32 | < 8 | < 8 |  |  |  |  | 
CC(N)[C@H]1[C@@H]2CN(Cc3ccc(-n4ccc(NC(=O)N5CCN(C(=O)C(C)(C)N)CC5)nc4=O)cc3)C[C@@H]21 (stereo partly drawn) [Compound 73] | < 0.5 | ≥ 1 | > 32 | > 32 | 8 to 32 | < 8 | < 8 |  |  |  |  | 
CC(C)(N)C(=O)N1CCN(C(=O)Nc2ccn(-c3ccc(CN4C[C@@H]5[C@H](C4)[C@H]5C(N)=O)cc3)c(=O)n2)CC1 [Compound 74] | ≥ 1 | ≥ 1 | > 32 | > 32 | > 32 | 8 to 32 | 8 to 32 |  |  |  |  | 
CNC[C@@H]1[C@H]2CN(Cc3ccc(-n4ccc(NC(=O)N5CCN(C(=O)C(C)(C)N)CC5)nc4=O)cc3)C[C@@H]12 [Compound 75] | < 0.5 | ≥ 1 | > 32 | > 32 | 8 to 32 | < 8 | < 8 |  |  |  |  | 
CC(C)(N)C(=O)N1CCN(C(=O)Nc2ccn(-c3ccc(CN4CCC5(CCNC5)C4)cc3)c(=O)n2)CC1 (stereo not drawn) [Compound 80] | < 0.5 | ≥ 1 | > 32 | > 32 | > 32 | < 8 | < 8 |  |  |  |  | 
CC(C)(N)C(=O)N1CCN(C(=O)Nc2ccn(-c3ccc(CN4CCC5(CC4)CNC5)cc3)c(=O)n2)CC1 [Compound 83] | 0.5 to 1 | ≥ 1 | > 32 | > 32 | > 32 | < 8 | < 8 |  |  |  |  | 
CC(C)(N)C(=O)N1CCN(C(=O)Nc2ccn(-c3ccc(CCN4CCC5(CC4)CC5N)cc3)c(=O)n2)CC1 (stereo not drawn) [Compound 94] | < 0.5 | ≥ 1 | 8 to 32 | > 32 | 8 to 32 | < 8 | < 8 |  |  |  |  | 

From patent publication US12692253B2, “Antimicrobial compounds and methods” (Curza Global, LLC, priority 2019, dated 2026)
